Measurements: patent US9511073B2, “Aromatic amides and uses thereof” (TAXIS Pharmaceuticals, Inc., priority 2011, dated 2016)
In brackets after ≈: the same amount, converted by molar mass.

Test system: Staphylococcus aureus (Isolate ID ATCC 29213)
Assay: Bacterial assay: MIC by broth microdilution or agar dilution (CLSI), S. aureus ATCC 29213
Type: cell-based
Conditions: for MIC: Staphylococcus aureus, ATCC29213, read-out: S. aureus MIC (μg/mL) Activity Range, S. aureus (ATCC29213); for S. aureus MIC (μg/mL) Activity Range: S. aureus (ATCC29213)
Method in brief: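 MICs by CLSI broth microdilution or agar dilution against S. aureus ATCC 29213 and its FtsZ-G196A mutant. Values reported as ranges: A ≤0.25 μg/mL, B >0.25–1.0, C >1.0–16, D >16 μg/mL.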

Compound: NC(=O)c1c(F)ccc(OC(COC(=O)CCCN2C(=O)c3ccccc3C2=O)c2nc(-c3ccc(C(F)(F)F)cc3)c(Br)o2)c1F (centres unmarked) [Compound 69, 2-(5-bromo-4-(4-(trifluoromethyl)phenyl)oxazol-2-yl)-2-(3-carbamoyl-2,4-difluorophenoxy)ethyl 4-(1,3-dioxoisoindolin-2-yl)butanoate]
- MIC: 0.25 to 1 µg/mL (≈ 0.346 to 1.38 µM)

Compound: NC(=O)c1c(F)ccc(OC(CO)c2nc(-c3ccc(C(F)(F)F)cc3)c(Cl)o2)c1F (centres unmarked) [Compound 44, 3-(1-(5-chloro-4-(4-(trifluoromethyl)phenyl)oxazol-2-yl)-2-hydroxyethoxy)-2,6-difluorobenzamide]
- MIC: 0.25 to 1 µg/mL (≈ 0.54 to 2.16 µM)

Compound: CC(=O)OCC(Oc1ccc(F)c(C(N)=O)c1F)c1nc(-c2ccc(C(F)(F)F)cc2)c(Br)o1 (centres unmarked) [Compound 37, 2-(5-bromo-4-(4-(trifluoromethyl)phenyl)oxazol-2-yl)-2-(3-carbamoyl-2,4-difluorophenoxy)ethyl acetate]
- MIC: 0.25 to 1 µg/mL

Compound: COCCNC(=O)OCC(Oc1ccc(F)c(C(N)=O)c1F)c1nc(-c2ccc(C(F)(F)F)cc2)c(Br)o1 (centres unmarked) [Compound 164, 2-(5-bromo-4-(4-(trifluoromethyl)phenyl)oxazol-2-yl)-2-(3-carbamoyl-2,4-difluorophenoxy)ethyl (2-methoxyethyl)carbamate]
- MIC: 0.25 to 1 µg/mL (≈ 0.411 to 1.64 µM)

Compound: NCCNC(=O)OCC(Oc1ccc(F)c(C(N)=O)c1F)c1nc(-c2ccc(C(F)(F)F)cc2)c(Br)o1 (centres unmarked) [Compound 152, 2-(5-bromo-4-(4-(trifluoromethyl)phenyl)oxazol-2-yl)-2-(3-carbamoyl-2,4-difluorophenoxy)ethyl (2-aminoethyl)carbamate]
- MIC: 1 to 16 µg/mL (≈ 1.69 to 27 µM)

Compound: NC(=O)c1c(F)ccc(OC(CNC(=O)OCc2ccccc2)c2nc(-c3ccc(C(F)(F)F)cc3)co2)c1F (centres unmarked) [Compound 276, benzyl (2-(3-carbamoyl-2,4-difluorophenoxy)-2-(4-(4-(trifluoromethyl)phenyl)oxazol-2-yl)ethyl)carbamate]
- MIC: 1 to 16 µg/mL (≈ 1.78 to 28.5 µM)

Compound: NC(=O)c1c(F)ccc(OC(COC(=O)NCC(=O)O)c2nc(-c3ccc(C(F)(F)F)cc3)c(Br)o2)c1F (centres unmarked) [Compound 142, 2-(((2-(5-bromo-4-(4-(trifluoromethyl)phenyl)oxazol-2-yl)-2-(3-carbamoyl-2,4-difluorophenoxy)ethoxy)carbonyl)amino)acetic acid]
- MIC: > 16 µg/mL

Compound: NC(=O)c1c(F)ccc(OC(COC(=O)NCc2cc[n+]([O-])cc2)c2nc(-c3ccc(C(F)(F)F)cc3)c(Br)o2)c1F (centres unmarked) [Compound 175, 4-((((2-(5-bromo-4-(4-(trifluoromethyl)phenyl)oxazol-2-yl)-2-(3-carbamoyl-2,4-difluorophenoxy)ethoxy)carbonyl)amino)methyl)pyridine 1-oxide]
- MIC: 1 to 16 µg/mL (≈ 1.52 to 24.3 µM)

Compound: C[C@@H](Oc1cccc(C(N)=O)c1F)c1nc(-c2ccc(C(F)(F)F)cc2)c(Br)o1 [Compound 299]
- MIC: 1 to 16 µg/mL (≈ 2.11 to 33.8 µM)

Compound: CCOC(=O)C(Oc1ccc(F)c(C(N)=O)c1F)c1nc(C2CCOCC2)co1 (centres unmarked) [Compound 180, ethyl 2-(3-carbamoyl-2,4-difluorophenoxy)-2-(4-(tetrahydro-2H-pyran-4-yl)oxazol-2-yl)acetate]
- MIC: > 16 µg/mL

Compound: NC(=O)c1c(F)ccc(OC(CO)c2nc(-c3ccc(C(=O)O)cc3)c(Br)o2)c1F (centres unmarked) [Compound 251, 4-(5-bromo-2-(1-(3-carbamoyl-2,4-difluorophenoxy)-2-hydroxyethyl)oxazol-4-yl)benzoic acid]
- MIC: > 16 µg/mL

Compound: CN(Cc1ccncc1)C(=O)OCC(Oc1ccc(F)c(C(N)=O)c1F)c1nc(-c2ccc(C(F)(F)F)cc2)c(Br)o1 (centres unmarked) [Compound 186, 2-(5-bromo-4-(4-(trifluoromethyl)phenyl)oxazol-2-yl)-2-(3-carbamoyl-2,4-difluorophenoxy)ethyl methyl(pyridin-4-ylmethyl)carbamate]
- MIC: 0.25 to 1 µg/mL (≈ 0.381 to 1.53 µM)

Compound: Cc1nnc(C(Oc2ccc(F)c(C(N)=O)c2F)c2nc(-c3ccc(C(F)(F)F)cc3)co2)o1 (centres unmarked) [Compound 218, 2,6-difluoro-3-((5-methyl-1,3,4-oxadiazol-2-yl)(4-(4-(trifluoromethyl)phenyl)oxazol-2-yl)methoxy)benzamide]
- MIC: > 16 µg/mL

Compound: NC(=O)c1c(F)ccc(OC(CO)c2nc(Br)c(-c3ccc(C(F)(F)F)cc3)o2)c1F (centres unmarked) [Compound 149, 3-(1-(4-bromo-5-(4-(trifluoromethyl)phenyl)oxazol-2-yl)-2-hydroxyethoxy)-2,6-difluorobenzamide]
- MIC: 1 to 16 µg/mL (≈ 1.97 to 31.5 µM)

Compound: CCCc1oc(C(COC(C)=O)Oc2ccc(F)c(C(N)=O)c2F)nc1-c1ccc(C(F)(F)F)cc1 (centres unmarked) [Compound 65, 2-(3-carbamoyl-2,4-difluorophenoxy)-2-(5-propyl-4-(4-(trifluoromethyl)phenyl)oxazol-2-yl)ethyl acetate]
- MIC: 1 to 16 µg/mL

Compound: NC(=O)c1c(F)ccc(OC(CC(O)CO)c2nc(-c3ccc(C(F)(F)F)cc3)c(Br)o2)c1F (centres unmarked) [Compound 157, 3-(1-(5-bromo-4-(4-(trifluoromethyl)phenyl)oxazol-2-yl)-3,4-dihydroxybutoxy)-2,6-difluorobenzamide]
- S. aureus MIC (μg/mL) Activity Range: B (activity>0.25 μg/mL-1.0 μg/mL)

Compound: CNC(=O)C(Oc1ccc(F)c(C(N)=O)c1F)c1nc(-c2ccc(Cl)cc2)c(Cl)o1 (centres unmarked) [Compound 49, 3-(1-(5-chloro-4-(4-chlorophenyl)oxazol-2-yl)-2-(methylamino)-2-oxoethoxy)-2,6-difluorobenzamide]
- MIC: 1 to 16 µg/mL (≈ 2.19 to 35.1 µM)

Compound: COc1cc(Cl)ccc1-c1coc(C(CO)Oc2ccc(F)c(C(N)=O)c2F)n1 (centres unmarked) [Compound 227, 3-(1-(4-(4-chloro-2-methoxyphenyl)oxazol-2-yl)-2-hydroxyethoxy)-2,6-difluorobenzamide]
- MIC: > 16 µg/mL

Compound: CNC(=O)C(Oc1ccc(F)c(C(N)=O)c1F)c1nc(-c2ccc(C(F)(F)F)cc2)c(Cl)o1 (centres unmarked) [Compound 51, 3-(1-(5-chloro-4-(4-(trifluoromethyl)phenyl)oxazol-2-yl)-2-(methylamino)-2-oxoethoxy)-2,6-difluorobenzamide]
- MIC: 1 to 16 µg/mL (≈ 2.04 to 32.7 µM)

Compound: CC(Oc1ccc(F)c(C(N)=O)c1F)c1nc(-c2ccc(Cl)cc2)c(Br)o1 (centres unmarked) [Compound 1]
- MIC: < 0.25 µg/mL

Compound: NC(=O)c1c(F)ccc(OC(CCC(O)CO)c2nc(-c3ccc(C(F)(F)F)cc3)c(Br)o2)c1F (single isomer, unassigned) [Compound 128, 3-((1-(5-bromo-4-(4-(trifluoromethyl)phenyl)oxazol-2-yl)-4,5-dihydroxypentyl)oxy)-2,6-difluorobenzamide (mixture of two diastereomeric pairs of enantiomers)]
- S. aureus MIC (μg/mL) Activity Range: B (activity>0.25 μg/mL-1.0 μg/mL)

Compound: NC(=O)c1c(F)ccc(OC(COCC(=O)O)c2nc(-c3ccc(C(F)(F)F)cc3)c(Br)o2)c1F (centres unmarked) [Compound 86, 2-(2-(5-bromo-4-(4-(trifluoromethyl)phenyl)oxazol-2-yl)-2-(3-carbamoyl-2,4-difluorophenoxy)ethoxy)acetic acid]
- MIC: > 16 µg/mL

Compound: NC(=O)c1c(F)ccc(OC(CO)c2nc(-c3ccc(C(F)(F)F)cc3)c(C3CC3)o2)c1F (centres unmarked) [Compound 269, 3-(1-(5-cyclopropyl-4-(4-(trifluoromethyl)phenyl)oxazol-2-yl)-2-hydroxyethoxy)-2,6-difluorobenzamide]
- MIC: 1 to 16 µg/mL (≈ 2.14 to 34.2 µM)

Compound: NC(=O)c1c(F)ccc(OC(CCO)c2nc(-c3ccc(C(F)(F)F)cc3)c(Br)o2)c1F (centres unmarked) [Compound 73, 3-(1-(5-bromo-4-(4-(trifluoromethyl)phenyl)oxazol-2-yl)-3-hydroxypropoxy)-2,6-difluorobenzamide]
- MIC: 0.25 to 1 µg/mL (≈ 0.48 to 1.92 µM)

Compound: CNC(=O)CCC(Oc1ccc(F)c(C(N)=O)c1F)c1nc(-c2ccc(C(F)(F)F)cc2)c(Br)o1 (centres unmarked) [Compound 93, 3-(1-(5-bromo-4-(4-(trifluoromethyl)phenyl)oxazol-2-yl)-4-(methylamino)-4-oxobutoxy)-2,6-difluorobenzamide]
- MIC: 0.25 to 1 µg/mL (≈ 0.445 to 1.78 µM)

Compound: COc1ccc(-c2nc(C(CO)Oc3ccc(F)c(C(N)=O)c3F)oc2Br)cc1 (centres unmarked) [Compound 112, 3-(1-(5-bromo-4-(4-methoxyphenyl)oxazol-2-yl)-2-hydroxyethoxy)-2,6-difluorobenzamide]
- MIC: 1 to 16 µg/mL (≈ 2.13 to 34.1 µM)

Compound: NC(=O)c1c(F)ccc(OC(COC(=O)NCc2ccccn2)c2nc(-c3ccc(C(F)(F)F)cc3)c(Br)o2)c1F (centres unmarked) [Compound 165, 2-(5-bromo-4-(4-(trifluoromethyl)phenyl)oazol-2-yl)-2-(3-carbamoyl-2,4-difluorophenoxy)ethyl (pyridin-2-ylmethyl)carbamate]
- S. aureus MIC (μg/mL) Activity Range: B (activity>0.25 μg/mL-1.0 μg/mL)

Compound: Cn1ccc(CNC(=O)OCC(Oc2ccc(F)c(C(N)=O)c2F)c2nc(-c3ccc(C(F)(F)F)cc3)c(Br)o2)n1 (centres unmarked) [Compound 193, 2-(5-bromo-4-(4-(trifluoromethyl)phenyl)oxazol-2-yl)-2-(3-carbamoyl-2,4-difluorophenoxy)ethyl ((1-methyl-1H-pyrazol-3-yl)methyl)carbamate]
- MIC: < 0.25 µg/mL

Compound: CS(=O)(=O)N1CCN(C(=O)OCC(Oc2ccc(F)c(C(N)=O)c2F)c2nc(-c3ccc(C(F)(F)F)cc3)c(Br)o2)C1=O (centres unmarked) [Compound 169, 2-(5-bromo-4-(4-(trifluoromethyl)phenyl)oxazol-2-yl)-2-(3-carbamoyl-2,4-difluorophenoxy)ethyl 3-(methylsulfonyl)-2-oxoimidazolidine-1-carboxylate]
- MIC: 1 to 16 µg/mL (≈ 1.43 to 22.9 µM)

Compound: NC(=O)c1c(F)ccc(OC(COC(=O)CCN2C(=O)c3ccccc3C2=O)c2nc(-c3ccc(C(F)(F)F)cc3)c(Br)o2)c1F (centres unmarked) [Compound 64, 2-(5-bromo-4-(4-(trifluoromethyl)phenyl)oxazol-2-yl)-2-(3-carbamoyl-2,4-difluorophenoxy)ethyl 3-(1,3-dioxoisoindolin-2-yl)propanoate]
- MIC: < 0.25 µg/mL

Compound: CCOC(=O)CCC(=O)OCC(Oc1ccc(F)c(C(N)=O)c1F)c1nc(-c2ccc(C(F)(F)F)cc2)c(Cl)o1 (centres unmarked) [Compound 56, 2-(3-carbamoyl-2,4-difluorophenoxy)-2-(5-chloro-4-(4-(trifluoromethyl)phenyl)oxazol-2-yl)ethyl ethyl succinate]
- MIC: 0.25 to 1 µg/mL

Compound: NCCC(Oc1ccc(F)c(C(N)=O)c1F)c1nc(-c2ccc(C(F)(F)F)cc2)c(Br)o1 (centres unmarked) [Compound 95, 3-(3-amino-1-(5-bromo-4-(4-(trifluoromethyl)phenyl)oxazol-2-yl)propoxy)-2,6-difluorobenzamide]
- MIC: > 16 µg/mL
